≈ marks a conversion by molar mass, not a printed value. Read-outs that look alike come from different tables or passages of the source.
Key:
Pseudomonas aeruginosa [1] = test: Inhibition zone, agar plate diffusion; format: cell-based; settings: Pa, mm ± standard deviation, sample at 0.5 mg/mL, read-out: Inhibition zone (IZ)
Summary of the method: (§1)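 Compounds in DMSO, with DMSO as negative control, were tested at 0.5 mg/mL in agar wells cut 10 mm wide.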

Escherichia coli [2] = test: Inhibition zone, agar plate diffusion; format: cell-based; settings: Ec, mm ± standard deviation, sample at 0.5 mg/mL, read-out: Inhibition zone (IZ)
Summary of the method: as §1

Bacillus subtilis [3] = test: Inhibition zone, agar plate diffusion; format: cell-based; settings: Bs, mm ± standard deviation, sample at 0.5 mg/mL, read-out: Inhibition zone (IZ)
Summary of the method: as §1

Enterococcus faecalis [4] = test: Inhibition zone, agar plate diffusion; format: cell-based; settings: Ef, mm ± standard deviation, sample at 0.5 mg/mL, read-out: Inhibition zone (IZ)
Summary of the method: as §1

S. aureus DNA Gyrase = S. aureus DNA Gyrase (Staphylococcus aureus, UniProt P0A0K8+P20831); test: DNA gyrase enzyme assay; format: biochemical; settings: Mean ± SEM
Pseudomonas aeruginosa [5] = test: MIC/MBC, paper disk diffusion; format: cell-based; settings: P. aeruginosa; for MBC / MIC: Pseudomonas aeruginosa; for MBC: read-out: MBC; for MIC: read-out: MIC
Summary of the method: (§2)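 MIC and MBC were obtained by paper disk diffusion, bacteria grown on nutrient agar and fungi/yeast on Sabouraud agar. MIC is the lowest concentration inhibiting growth.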

Escherichia coli [6] = test: MIC/MBC, paper disk diffusion; format: cell-based; settings: E. coli; for MBC / MIC: Escherichia coli; for MBC: read-out: MBC; for MIC: read-out: MIC
Summary of the method: as §2

Bacillus subtilis [7] = test: MIC/MBC, paper disk diffusion; format: cell-based; settings: B. subtilis; for MBC: read-out: MBC
Summary of the method: as §2

Salmonella typhi = test: MIC/MBC, paper disk diffusion; format: cell-based; settings: Salmonella enterica, S. typhi; for MBC: read-out: MBC
Summary of the method: as §2

Enterococcus faecalis [8] = test: MIC/MBC, paper disk diffusion; format: cell-based; settings: E. faecalis; for MBC: read-out: MBC; for MIC: read-out: MIC
Summary of the method: as §2

Staphylococcus aureus = test: MIC/MBC, paper disk diffusion; format: cell-based; settings: Staphylococcus aureus, S. aureus; for MBC: read-out: MBC; for MIC: read-out: MIC
Summary of the method: as §2

[9] = Bacillus subtilis, read-out: MIC

S. aureus DNA Gyrase, sequence (P20831 whole entry, the tested form may be a part): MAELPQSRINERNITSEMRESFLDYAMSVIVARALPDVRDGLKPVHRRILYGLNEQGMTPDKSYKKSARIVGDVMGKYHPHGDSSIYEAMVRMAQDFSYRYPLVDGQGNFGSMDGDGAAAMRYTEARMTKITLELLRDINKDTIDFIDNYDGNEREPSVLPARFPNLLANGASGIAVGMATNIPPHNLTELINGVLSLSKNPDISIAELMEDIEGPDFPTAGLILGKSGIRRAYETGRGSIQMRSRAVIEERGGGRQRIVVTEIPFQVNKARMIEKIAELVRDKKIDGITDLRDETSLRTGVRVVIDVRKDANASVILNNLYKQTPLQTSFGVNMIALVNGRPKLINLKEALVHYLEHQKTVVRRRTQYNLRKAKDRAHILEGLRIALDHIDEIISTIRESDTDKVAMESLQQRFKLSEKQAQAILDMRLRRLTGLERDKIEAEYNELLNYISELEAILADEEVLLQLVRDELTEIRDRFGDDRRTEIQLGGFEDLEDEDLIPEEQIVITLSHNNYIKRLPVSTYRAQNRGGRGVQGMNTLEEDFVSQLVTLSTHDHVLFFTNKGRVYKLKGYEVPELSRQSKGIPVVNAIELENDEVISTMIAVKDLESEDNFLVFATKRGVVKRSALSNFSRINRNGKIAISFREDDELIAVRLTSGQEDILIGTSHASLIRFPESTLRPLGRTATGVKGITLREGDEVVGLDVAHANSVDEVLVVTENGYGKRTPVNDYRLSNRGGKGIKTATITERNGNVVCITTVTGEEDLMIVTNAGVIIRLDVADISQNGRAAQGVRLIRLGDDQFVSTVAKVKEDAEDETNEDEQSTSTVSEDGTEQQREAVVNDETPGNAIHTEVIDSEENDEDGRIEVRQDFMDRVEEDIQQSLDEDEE
S. aureus DNA Gyrase, sequence (P0A0K8 whole entry, the tested form may be a part): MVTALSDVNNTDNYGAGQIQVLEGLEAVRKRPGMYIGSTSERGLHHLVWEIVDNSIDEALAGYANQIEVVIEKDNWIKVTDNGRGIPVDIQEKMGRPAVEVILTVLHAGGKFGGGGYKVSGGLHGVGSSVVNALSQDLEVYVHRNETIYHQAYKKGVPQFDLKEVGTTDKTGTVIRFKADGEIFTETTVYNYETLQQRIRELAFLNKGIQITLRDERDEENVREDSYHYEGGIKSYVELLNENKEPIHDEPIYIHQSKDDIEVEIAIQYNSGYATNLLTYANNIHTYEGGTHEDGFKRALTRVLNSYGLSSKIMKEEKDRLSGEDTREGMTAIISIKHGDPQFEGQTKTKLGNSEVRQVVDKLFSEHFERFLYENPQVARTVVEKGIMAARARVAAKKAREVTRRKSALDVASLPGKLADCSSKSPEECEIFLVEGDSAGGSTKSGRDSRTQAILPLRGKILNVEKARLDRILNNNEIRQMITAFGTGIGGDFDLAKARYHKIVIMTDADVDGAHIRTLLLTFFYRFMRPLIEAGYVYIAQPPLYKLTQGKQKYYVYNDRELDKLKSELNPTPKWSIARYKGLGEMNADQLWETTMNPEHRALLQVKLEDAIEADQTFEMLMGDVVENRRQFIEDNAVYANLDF

## COc1ccc(Nc2n[nH]c(N=Cc3cc(OC)c(OC)c(OC)c3)c2C(=O)Nc2ccccc2)cc1 [9b, 3-(p-Methoxyphenylamino)-N-phenyl-5-(3,4,5-trimethoxybenzylideneamino)-1H-pyrazole-4-carboxamide]
Pseudomonas aeruginosa [1]
  zone of inhibition at 500 µg/mL: 21 ± 0.55 mm
Escherichia coli [2]
  zone of inhibition at 500 µg/mL: 23 ± 0.2 mm
Bacillus subtilis [3]
  zone of inhibition at 500 µg/mL: 25 ± 0.87 mm
Enterococcus faecalis [4]
  zone of inhibition at 500 µg/mL: 24 ± 0.35 mm
S. aureus DNA Gyrase
  IC50: 10.5 ± 0.55 µM
Pseudomonas aeruginosa [5]
  MBC: 31.2 µg/mL (≈ 62.3 µM)
  MIC: 15.6 µg/mL (≈ 31.1 µM)
Escherichia coli [6]
  MBC: 14.1 µg/mL (≈ 28 µM)
  MIC: 7.81 µg/mL (≈ 15.6 µM)
Bacillus subtilis [7]
  Fold more potent than Tetracycline (MIC): 6 fold
Bacillus subtilis [7]; Bacillus subtilis
  MBC: 9.2 µg/mL (≈ 18.3 µM)
Bacillus subtilis [7]; [9]
  MIC: 4.5 µg/mL (≈ 8.97 µM)
Salmonella typhi
  MIC: 5.57 µg/mL (≈ 11.1 µM)
  MBC: 10.6 µg/mL (≈ 21.1 µM)
Enterococcus faecalis [8]
  MBC: 7.41 µg/mL (≈ 14.8 µM)
  MIC: 3.9 µg/mL (≈ 7.78 µM)
Staphylococcus aureus
  MBC: 15.6 µg/mL (≈ 31.1 µM)
  MIC: 7.81 µg/mL (≈ 15.6 µM)

## COc1ccc(Nc2n[nH]c(N=Cc3ccc(N4CCCCC4)cc3)c2C(N)=O)cc1 [8a, 3-(p-Methoxyphenylamino)-5-(4-(piperidin-1-yl)benzylideneamino)-1H-pyrazole-4-carboxamide]
Pseudomonas aeruginosa [1]
  zone of inhibition at 500 µg/mL: 25 ± 0.85 mm
Escherichia coli [2]
  zone of inhibition at 500 µg/mL: 23 ± 0.14 mm
Bacillus subtilis [3]
  zone of inhibition at 500 µg/mL: 27 ± 0.5 mm
Enterococcus faecalis [4]
  zone of inhibition at 500 µg/mL: 25 ± 0.33 mm
S. aureus DNA Gyrase
  IC50: 7.69 ± 0.23 µM
Pseudomonas aeruginosa [5]
  Fold more than Tetracycline (MIC): 11.2 fold
  MBC: 10.6 µg/mL (≈ 25.3 µM)
  MIC: 5.57 µg/mL (≈ 13.3 µM)
Escherichia coli [6]
  Fold more than Tetracycline (MIC): 16 fold
  MBC: 1.94 µg/mL (≈ 4.64 µM)
  MIC: 0.97 µg/mL (≈ 2.32 µM)
Bacillus subtilis [7]
  MIC: 1.95 µg/mL (≈ 4.66 µM)
Bacillus subtilis [7]; Bacillus subtilis
  MBC: 3.9 µg/mL (≈ 9.32 µM)
Bacillus subtilis [7]; [9]
  MIC: 1.92 µg/mL (≈ 4.59 µM)
Salmonella typhi
  MIC: 7.81 µg/mL (≈ 18.7 µM)
  MBC: 12.5 µg/mL (≈ 29.8 µM)
Enterococcus faecalis [8]
  MBC: 6.63 µg/mL (≈ 15.8 µM)
  MIC: 3.9 µg/mL (≈ 9.32 µM)
Staphylococcus aureus
  MBC: 5.57 µg/mL (≈ 13.3 µM)
  MIC: 5.57 µg/mL (≈ 13.3 µM)

— paper PMC7321065, “Discovery of New Schiff Bases Tethered Pyrazole Moiety: Design, Synthesis, Biological Evaluation, and Molecular Docking Study as Dual Targeting DHFR/DNA Gyrase Inhibitors with Immunomodulatory Activity” (Molecules, 2020)
